Assay results reported in patent publication US5606037A, “Processes antineoplastic heteronaphthoquinones” (BioChem Pharma Inc., priority 1995, dated 1997).
Structures can show the parent of a compound that is named as a salt.

Tests used:
Format in all cases: cell-based, Human
[1] = system: SKOV3 (Ovarian adenocarcinoma); assay: In vitro cytotoxicity, microculture tetrazolium (MTT) assay, SKOV3; details: SKOV3 ovarian adenocarcinoma, 48 h with compound, further 48 h, MTT, Table 1
Procedure: (§1) The microculture tetrazolium assay was used to test in vitro cytotoxicity. This assay is described in Plumb, J. A. et al., 1989 Cancer Research 49, 4435-4440, which is herein incorporated by reference. The cytotoxicity of compounds towards tumor cells is measured in vitro using the assay. This assay method is based upon the ability of live, but not dead cells to reduce the yellow water soluble dye 3-(4,5-dimethylthiazol-2-yl)-2,5-diphenyltetrazolium bromide (MTT) to its water insoluble purple formazan product.
(§2) Human Tumor Cell lines, used were:
SKOV3 (Ovarian adenocarcinoma)--provided by Dr. V. Ling, Ontario Cancer Institute.
(§3) The cells were maintained in exponential growth in culture in minimal essential media (MEM) supplemented with non-essential amino acids, and containing 15% (v/v) fetal. bovine serum, 5 mM L-glutamine, 1 mM sodium pyruvate, and 0.1 U/ml insulin. All cell lines were grown at 37° C. in an atmosphere of 5% CO2 in air.
(§4) MTT: 2 mg/ml in phosphate buffered saline (stable at 4° C. in dark for 1 week).
(§5) Sorensen's buffer: 0.1M glycine/NaOH, pH 10.5, containing 0.1M NaCl.
(§6) Test compounds: 20 mM in DMSO and diluted to a final concentration of 200 μM in culture medium before use.
(§7) For each assay, doxorubicin is included as an inter-assay standard. This allows us to monitor the behaviour of the assay in general, and in particular, to check that the SKVLB line has maintained its resistant phenotype.
(§8) The assays are carried out in 96-well (8 well×12 well) microtiter plates. Serial dilutions of the compound are tested along the length of the plate. A 1:3 serial dilution of compound in culture medium covers a concentration range from 100 μM to 1.7 nM. Each concentration of compound is tested in quadruplet, allowing two compounds to be tested per plate. Wells containing no cells (blank) and cells with no test compound (control) are included on each plate.
(§9) Cells are plated out in 100 μl of culture medium in the microtiter plates at a density of around 1,500-4,000 cells per well. The plates are incubated overnight to allow the cells to become adherent after which the test compound is added (100 μl of appropriate dilution per well). The cells are incubated with test compound at 37° C. for 48 h after which the compound is replaced with fresh medium. After a further 48 h incubation at 37° C., 50 μl of MTT solution (2 mg/ml) is added to each well. The plates are incubated in the dark for 4 h at 37° C. after which the medium is removed. The MTT formazan product is extracted from the cells by the addition of 200 μl DMSO followed by 50 μl of Sorensen's buffer. The plates are shaken briefly and the absorbance at 570 nm is read using a Molecular Devices UV max plate reader. Curves are fit to the MTT assay data using a four parameter logistic equation, and the data are normalized to fit a 0% to 100% survival scale.

[2] = system: SKVLB (Ovarian; multidrug resistant); assay: In vitro cytotoxicity, microculture tetrazolium (MTT) assay, SKVLB; details: Homo sapiens; SKVLB multidrug resistant ovarian; 48 h with compound, further 48 h, MTT; Table 1
Procedure: as §1, §2
SKVLB (Ovarian; multidrug resistant)--Dr. V. Ling, Ontario Cancer Institute.
as §3, §4, §5, §6, §7, §8, §9

[3] = system: T47D (Ductal carcinoma of breast); assay: In vitro cytotoxicity, microculture tetrazolium (MTT) assay, T47D; details: 48 h with compound, further 48 h, Table 1
Procedure: as §1, §2
T47D (Ductal carcinoma of breast)--ATCC catalog #HTB-133.
as §3, §4, §5, §6, §7, §8, §9

Lox (Melanoma) = assay: In vitro cytotoxicity, microculture tetrazolium (MTT) assay, LOX; details: 48 h with compound, further 48 h, Table 1
Procedure: as §1, §2
Lox (Melanoma)--Southern Research Institute.
as §3, §4, §5, §6, §7, §8, §9

[4] = system: HT 29 (Colon adenocarcinoma); assay: In vitro cytotoxicity, microculture tetrazolium (MTT) assay, HT29; details: further 48 h, Table 1
Procedure: as §1, §2
HT 29 (Colon adenocarcinoma) ATCC catalog #HTB-38.
as §3, §4, §5, §6, §7, §8, §9

[5] = Homo sapiens, HT-29, 48 h with compound

## CC(=O)[C@@H]1CC2=C(C(=O)c3ccc(O)cc3C2=O)[C@@H](O[C@H]2C[C@H](NC(=O)C(F)(F)F)[C@H](O)[C@H](C)O2)O1 [BCH1181, (1'S,1R,3S)-Methyl (5,10-dioxo-1-(2',3',6'-trideoxy-3'-trifluoroacetamido-L-lyxohexopyranose)-7-hydroxy-3,4,5, 10-tetrahydro[2,3-C]pyran-3-yl) ketone]
[1]; Homo sapiens, SK-OV-3
  IC50: 2260 nM
[2]
  IC50: 8480 nM
[3]; Homo sapiens
  IC50: 9230 nM
Lox (Melanoma); Homo sapiens
  IC50: 3070 nM
[4]; [5]
  IC50: 536 nM

## COC1OC(C(=O)NCCN2CCCC2)=CC2=C1C(=O)c1ccccc1C2=O (stereo not drawn) [BCH2839, 1-methoxy-3-[2-(N-pyrrolidinyl)ethylaminocarbonyl]-5,10-dioxo-5,10-dihydro-1H-naphtho-[2,3-c]-pyran hydrochloride salt]
[1]; Homo sapiens, SK-OV-3
  IC50: 36.5 to 46.1 nM
[2]
  IC50: 224 to 460 nM
[3]; Homo sapiens
  IC50: 58.1 to 291 nM
Lox (Melanoma); Homo sapiens
  IC50: 262 to 975 nM
[4]; [5]
  IC50: 174 to 490 nM

## COC(=O)C1=CC2=C(C(=O)c3ccccc3C2=O)C(OC)O1 (stereo not drawn) [BCH2160, 1-methoxy-3-methoxy carbonyl-5,10-dioxo-5,10-dihydro-1H-naphtho-[2,3-c]-pyran]
[1]; Homo sapiens, SK-OV-3
  IC50: 4930 nM
[2]
  IC50: 9120 nM
[3]; Homo sapiens
  IC50: 9590 nM
Lox (Melanoma); Homo sapiens
  IC50: 7430 nM
[4]; [5]
  IC50: 15700 nM

## CC(=O)C1CC2=C(CO1)C(=O)c1ccc(O)cc1C2=O (stereo not drawn) [BCH1129, Methyl (7-hydroxy-5,10-dioxo-3,4,5,10-tetrahydronaphtho [2,3-C]pyran-3-yl) ketone]
[1]; Homo sapiens, SK-OV-3
  IC50: 73300 nM
[2]
  IC50: > 100000 nM
[3]; Homo sapiens
  IC50: 59400 nM
Lox (Melanoma); Homo sapiens
  IC50: 88200 nM
[4]; [5]
  IC50: 63200 nM

## CC[C@H]1CC2=C(C(=O)c3ccccc3C2=O)[C@H](O[C@H]2C[C@H](N)[C@H](O)[C@H](C)O2)O1 [BCH2021, (1'S,1S,3S)-5,10-dioxo-3-ethyl-1-(2',3',6'-trideoxy-3'-amino-L-lyxohexopyranose)-3,4,5,10-tetrahydro-1H-naphtho-[2,3-c]-pyran hydrochloride]
[1]; Homo sapiens, SK-OV-3
  IC50: 12400 nM
[2]
  IC50: 46400 nM
[3]; Homo sapiens
  IC50: 19000 nM
Lox (Melanoma); Homo sapiens
  IC50: 10600 nM
[4]; [5]
  IC50: 37800 nM

## COC(=O)[C@H](CC(C)C)NC(=O)[C@@H](N)CO[C@H]1O[C@H](C(C)=O)CC2=C1C(=O)c1ccccc1C2=O [BCH2000, (1S,2'S,3S,5'S)-Methyl-(1-O-[Serine-Leucine-Me ester]-5,10-dioxo-3,4,5,10-tetrahydro-1-H-naphtho[2,3-c]pyran-3-yl) ketone hydrochloride]
[1]; Homo sapiens, SK-OV-3
  IC50: 95 nM
[2]
  IC50: 6640 nM
[3]; Homo sapiens
  IC50: 338 nM
Lox (Melanoma); Homo sapiens
  IC50: 90.5 nM
[4]; [5]
  IC50: 37.8 nM

## CC(=O)[C@H]1CC2=C(C(=O)c3ccc(O)cc3C2=O)[C@H](O[C@H]2C[C@H](NC(=O)C(F)(F)F)[C@H](O)[C@H](C)O2)O1 [BCH1180, (1'S,1S,3R)-Methyl (5,10-dioxo-1-(2',3',6'-trideoxy-3'-trifluoroacetamido-L-lyxohexopyranose)-7-hydroxy-3,4,5, 10-tetrahydro[2,3-C]pyran-3-yl) ketone]
[1]; Homo sapiens, SK-OV-3
  IC50: 851 nM
[2]
  IC50: 8680 nM
[3]; Homo sapiens
  IC50: 7610 nM
Lox (Melanoma); Homo sapiens
  IC50: 3330 nM
[4]; [5]
  IC50: 468 nM

## CC(=O)[C@@]1(C)CC2=C(C(=O)c3ccccc3C2=O)[C@H](O[C@H]2C[C@H](NC(=O)C(F)(F)F)[C@H](O)[C@H](C)O2)O1 [BCH2082, (1'S, 1S, 3R)-1-(3'-trifluoroacetamido-2',3',6'-trideoxy-L-lyxohexopyranose)-3-acetyl-3-methyl-5,10-dioxo-4,5,10-trihydro-1H-naphtho-[2,3-c]-pyran]
[1]; Homo sapiens, SK-OV-3
  IC50: 1800 nM
[2]
  IC50: 5600 nM
[3]; Homo sapiens
  IC50: 4000 nM
Lox (Melanoma); Homo sapiens
  IC50: 1600 nM
[4]; [5]
  IC50: 2600 nM

## C[C@@H]1O[C@@H](O[C@H]2O[C@H](COc3ccccc3)CC3=C2C(=O)c2ccccc2C3=O)C[C@H](NC(=O)C(F)(F)F)[C@@H]1O [BCH2032, (1'S, 1R, 3S)-5,10-dioxo-3-phenyloxymethyl-1-(2',3',6'-trideoxy-3'-trifluoroacetamido-L-lyxohexopyranose)-3,4,5,10-tetrahydro-1H-naphtho-[2,3-c]pyran]
[1]; Homo sapiens, SK-OV-3
  IC50: 6010 to 12000 nM
[2]
  IC50: 17600 to 28000 nM
[3]; Homo sapiens
  IC50: 15800 to 23000 nM
Lox (Melanoma); Homo sapiens
  IC50: 2830 to 5100 nM
[4]; [5]
  IC50: 8490 to 9300 nM

## CC(=O)C1CC2=C(C(=O)c3ccccc3C2=O)C(OCC2CCCNC2)O1 (mixture of isomers) [BCH2061, Methyl-(1-O-[3-piperidinemethanol]-5,10-dioxo-3,4,5,10-tetrahydronaphthaleno-[2,3-c]pyran-3-yl) ketone hydrochloride salt]
[1]; Homo sapiens, SK-OV-3
  IC50: 8.3 nM
[2]
  IC50: 141 nM
[3]; Homo sapiens
  IC50: 270 nM
Lox (Melanoma); Homo sapiens
  IC50: 45 nM
[4]; [5]
  IC50: 54 nM

## Nc1nc(C2CC3=C(CO2)C(=O)c2ccccc2C3=O)cs1 (stereo not drawn) [BCH1189]
[1]; Homo sapiens, SK-OV-3
  IC50: 6500 nM
[2]
  IC50: 26600 nM
[3]; Homo sapiens
  IC50: 12500 nM
Lox (Melanoma); Homo sapiens
  IC50: 14300 nM
[4]; [5]
  IC50: 16600 nM

## COCC1(COC)CC2=C(C(=O)c3ccccc3C2=O)[C@H](O[C@H]2C[C@H](NC(=O)C(F)(F)F)[C@H](O)[C@H](C)O2)O1 [BCH1697]
[1]; Homo sapiens, SK-OV-3
  IC50: 3700 nM
[2]
  IC50: 13200 nM
[3]; Homo sapiens
  IC50: 18000 nM
Lox (Melanoma); Homo sapiens
  IC50: 5320 nM
[4]; [5]
  IC50: 11000 nM

## COC1OC(C(=O)NCCCn2ccnc2)=CC2=C1C(=O)c1ccccc1C2=O (stereo not drawn) [BCH2157, (3-N-hydrochloroimidazolylpropyl)-1-methoxy-5,10-dioxo-5,10-dihydro-1H-naphtho-[2,3-c]-pyran-3-carboxamide]
[1]
  IC50: 187 nM
[3]
  IC50: 233 nM
Lox (Melanoma)
  IC50: 15.5 nM
[4]; 48 h with compound
  IC50: 1230 nM

## CC(=O)C1CC2=C(C(=O)c3ccccc3C2=O)C(O[C@H]2C[C@H](O)[C@H](O)[C@H](C)O2)O1 (mixture of isomers) [BCH2117, (1'S,1S,3R) and (1'S,1R,3S)-methyl-(1-[dideoxy-2',6'-dihydroxy-3',4'-L-lyxohexopyranose]-5,10-dioxo-3,4,5,10-tetrahydronaphtho-[2,3-c]-pyran-3-yl) ketone]
[1]; Homo sapiens, SK-OV-3
  IC50: 9.5 nM
[3]; Homo sapiens
  IC50: 37.4 nM
Lox (Melanoma); Homo sapiens
  IC50: 73 nM
[4]; [5]
  IC50: 30 nM

## CC(NC(=O)C(F)(F)F)[C@H]1CC2=C(C(=O)c3ccccc3C2=O)[C@H](O[C@H]2C[C@H](O)[C@H](O)[C@H](C)O2)O1 (stereo partly drawn) [BCH2018, (1'S,1S,3R)-3-(trifluoroacetamidoethyl)-5,10-dioxo-1-(2',3',6'-trideoxy-3',4'-dihydroxy-L-lyxohexopyranose)-3,4,5,10-tetrahydro-1H-naphtho-[2,3-c]-pyran]
[1]
  IC50: 3110 nM
[3]
  IC50: 8560 nM
Lox (Melanoma)
  IC50: 2380 nM
[4]; 48 h with compound
  IC50: 14200 nM

## C=CCC1CC2=C(C(=O)c3ccccc3C2=O)C(OC2CC(NC(=O)C(F)(F)F)C(O)C(C)O2)O1 (stereo not drawn) [BCH1648]
[1]; Homo sapiens, SK-OV-3
  IC50: 51.9 nM
[3]; Homo sapiens
  IC50: 360 nM
Lox (Melanoma); Homo sapiens
  IC50: 138 nM
[4]; [5]
  IC50: 309 nM

## CCCC1OC(C(=O)NCCCN(C)C)=CC2=C1C(=O)c1ccccc1C2=O (stereo not drawn) [BCH2168, 1-propyl-3-(3-dimethylaminopropylaminocarbonyl)-5,10-dihydro-5,10-dioxo-1H-naphtho-[2,3-c]-pyran]
[1]; Homo sapiens, SK-OV-3
  IC50: 180 to 276 nM
[2]
  IC50: 980 nM
[3]; Homo sapiens
  IC50: 573 nM
[4]; [5]
  IC50: 393 to 1200 nM

## CC(=O)[C@H]1CC2=C(C(=O)c3ccccc3C2=O)[C@H](O[C@H]2C[C@H](NC(=O)C(F)(F)F)[C@H](OC(=O)CBr)[C@H](C)O2)O1 [BCH2105, (1'-S, 1-S, 3-R)-methyl-(1-[2',3',4',6' tetradeoxy-3'-trifluoroacetamido-4'-O-(2-bromo-acetyl)-L-lyxopyranose]-5, 10-dioxo-3,4,5,10 tetrahydronaphtho-[2,3-c]pyran-3-yl) ketone]
[1]; Homo sapiens, SK-OV-3
  IC50: 3 nM
[3]; Homo sapiens
  IC50: 19 nM
Lox (Melanoma); Homo sapiens
  IC50: 25 nM
[4]; [5]
  IC50: 6.9 nM
